PMC12155096 (International Journal of Molecular Sciences, 2025)
Where a name gives a salt, the structure may show the parent alone. Read-outs that look alike come from different tables or passages of the source.

How the values were obtained:
human CYP2C19 [1] = molecular target: T1, human CYP2C19 (Homo sapiens, UniProt P33261)
human CYP1A2 [2] = molecular target: T2, human CYP1A2 (Homo sapiens, UniProt P05177); assay: biochemical
T2 sequence (P05177 1-516): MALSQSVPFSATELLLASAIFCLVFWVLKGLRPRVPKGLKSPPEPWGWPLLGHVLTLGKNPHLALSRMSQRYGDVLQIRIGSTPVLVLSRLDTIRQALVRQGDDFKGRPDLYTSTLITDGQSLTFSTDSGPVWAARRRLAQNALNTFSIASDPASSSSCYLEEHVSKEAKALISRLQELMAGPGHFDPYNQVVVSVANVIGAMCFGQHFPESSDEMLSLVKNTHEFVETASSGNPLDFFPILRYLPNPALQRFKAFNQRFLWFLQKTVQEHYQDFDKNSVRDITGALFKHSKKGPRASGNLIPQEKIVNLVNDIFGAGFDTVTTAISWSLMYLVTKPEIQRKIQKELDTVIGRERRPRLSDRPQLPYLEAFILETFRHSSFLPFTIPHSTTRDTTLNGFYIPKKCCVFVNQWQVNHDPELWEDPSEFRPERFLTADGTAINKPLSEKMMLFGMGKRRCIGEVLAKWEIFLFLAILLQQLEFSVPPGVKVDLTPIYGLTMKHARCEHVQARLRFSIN

human CYP2C9 [3] = molecular target: T3, human CYP2C9 (Homo sapiens, UniProt P11712)
human CYP2D6 [4] = molecular target: T4, human CYP2D6 (Homo sapiens, UniProt P10635); settings: human
human CYP2D6 [5] = molecular target: T4, human CYP2D6; assay: biochemical
[6] = molecular target: Photinus pyralis (firefly) luciferase (Photinus pyralis, UniProt P08659); assay: biochemical; type: biochemical
human CYP2C9 [7] = molecular target: T3, human CYP2C9; assay: biochemical
human CYP1A2 [8] = molecular target: T2, human CYP1A2
human CYP2C19 [9] = molecular target: T1, human CYP2C19; assay: biochemical
CYP3A4 = CYP3A4 (Homo sapiens, UniProt P08684)
[10] = CYP1A2 IC50 (half-maximal inhibitory concentration)
[11] = CYP2D6 IC50 (half-maximal inhibitory concentration)
[12] = CYP2C9 IC50 (half-maximal inhibitory concentration)
[13] = CYP2C19 IC50 (half-maximal inhibitory concentration)

T4 sequence (P10635 whole entry): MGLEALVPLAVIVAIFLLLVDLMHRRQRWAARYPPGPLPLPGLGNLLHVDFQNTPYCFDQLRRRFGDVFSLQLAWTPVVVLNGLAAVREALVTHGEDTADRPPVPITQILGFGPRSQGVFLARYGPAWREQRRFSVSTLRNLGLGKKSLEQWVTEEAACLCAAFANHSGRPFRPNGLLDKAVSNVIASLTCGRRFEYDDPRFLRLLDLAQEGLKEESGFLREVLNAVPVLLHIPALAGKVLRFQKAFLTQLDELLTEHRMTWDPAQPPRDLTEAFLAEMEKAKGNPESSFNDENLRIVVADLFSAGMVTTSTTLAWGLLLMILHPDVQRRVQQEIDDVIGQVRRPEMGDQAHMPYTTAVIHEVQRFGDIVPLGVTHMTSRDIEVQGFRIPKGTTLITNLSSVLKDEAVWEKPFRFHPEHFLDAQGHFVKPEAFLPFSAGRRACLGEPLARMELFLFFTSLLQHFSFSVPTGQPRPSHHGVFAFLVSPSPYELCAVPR
T1 sequence (P33261 whole entry): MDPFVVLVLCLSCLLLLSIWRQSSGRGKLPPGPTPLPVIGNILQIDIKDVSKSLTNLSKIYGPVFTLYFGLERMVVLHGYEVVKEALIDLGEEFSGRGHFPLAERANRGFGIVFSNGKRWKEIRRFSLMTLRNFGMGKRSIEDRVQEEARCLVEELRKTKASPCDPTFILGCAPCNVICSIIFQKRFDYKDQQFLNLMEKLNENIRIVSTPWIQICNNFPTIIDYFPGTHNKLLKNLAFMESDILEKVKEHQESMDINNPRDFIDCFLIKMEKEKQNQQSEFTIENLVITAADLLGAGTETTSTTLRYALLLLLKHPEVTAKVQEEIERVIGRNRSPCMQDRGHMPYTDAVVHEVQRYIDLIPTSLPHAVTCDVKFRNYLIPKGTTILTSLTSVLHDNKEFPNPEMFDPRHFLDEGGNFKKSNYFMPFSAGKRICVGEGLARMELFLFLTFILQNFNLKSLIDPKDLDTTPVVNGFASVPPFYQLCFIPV
Chain of CYP3A4 (P08684 whole entry): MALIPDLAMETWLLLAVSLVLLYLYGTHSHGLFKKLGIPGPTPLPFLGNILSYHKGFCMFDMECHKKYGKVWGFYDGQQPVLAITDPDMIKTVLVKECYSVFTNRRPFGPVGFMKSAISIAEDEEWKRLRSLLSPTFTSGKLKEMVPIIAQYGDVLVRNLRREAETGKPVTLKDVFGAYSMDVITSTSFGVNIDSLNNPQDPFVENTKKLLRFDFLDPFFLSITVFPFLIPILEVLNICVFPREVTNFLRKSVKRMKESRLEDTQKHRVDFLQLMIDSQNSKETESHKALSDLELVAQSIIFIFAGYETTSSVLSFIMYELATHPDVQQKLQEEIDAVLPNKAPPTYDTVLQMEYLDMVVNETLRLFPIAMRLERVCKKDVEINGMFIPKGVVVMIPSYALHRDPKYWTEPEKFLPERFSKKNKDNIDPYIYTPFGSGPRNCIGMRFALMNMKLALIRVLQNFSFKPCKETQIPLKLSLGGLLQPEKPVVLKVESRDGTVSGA
T3 sequence (P11712 whole entry): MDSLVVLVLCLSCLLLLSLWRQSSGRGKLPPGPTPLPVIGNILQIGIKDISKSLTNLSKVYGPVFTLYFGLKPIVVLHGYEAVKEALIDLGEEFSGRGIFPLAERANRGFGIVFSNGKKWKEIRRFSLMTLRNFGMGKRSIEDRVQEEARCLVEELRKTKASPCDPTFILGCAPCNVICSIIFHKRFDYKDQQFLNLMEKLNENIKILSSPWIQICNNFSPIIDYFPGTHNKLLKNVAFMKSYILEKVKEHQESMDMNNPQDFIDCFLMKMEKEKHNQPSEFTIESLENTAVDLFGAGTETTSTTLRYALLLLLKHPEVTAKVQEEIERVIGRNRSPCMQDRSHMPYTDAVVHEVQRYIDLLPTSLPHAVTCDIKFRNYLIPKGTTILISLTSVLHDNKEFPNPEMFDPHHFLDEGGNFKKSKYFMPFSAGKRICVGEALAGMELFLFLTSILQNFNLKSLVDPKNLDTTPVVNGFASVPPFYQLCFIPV
Chain of Photinus pyralis (firefly) luciferase (P08659 whole entry): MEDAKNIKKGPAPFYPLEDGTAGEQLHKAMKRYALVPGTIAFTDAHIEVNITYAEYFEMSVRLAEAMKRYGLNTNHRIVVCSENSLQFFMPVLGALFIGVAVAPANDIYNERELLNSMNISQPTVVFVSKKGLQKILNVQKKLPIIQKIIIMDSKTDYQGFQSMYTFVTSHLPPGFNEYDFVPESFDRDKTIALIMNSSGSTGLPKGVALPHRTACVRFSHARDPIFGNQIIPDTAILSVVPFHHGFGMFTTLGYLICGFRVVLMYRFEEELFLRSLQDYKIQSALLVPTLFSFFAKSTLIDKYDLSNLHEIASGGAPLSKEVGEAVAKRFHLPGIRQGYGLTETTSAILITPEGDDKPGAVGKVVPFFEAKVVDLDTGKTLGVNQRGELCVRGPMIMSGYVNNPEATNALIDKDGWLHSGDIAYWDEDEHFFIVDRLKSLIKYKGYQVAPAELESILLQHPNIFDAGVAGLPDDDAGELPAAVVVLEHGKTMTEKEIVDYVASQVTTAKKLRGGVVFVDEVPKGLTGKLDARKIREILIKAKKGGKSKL

O=[N+]([O-])c1c2ccccc2cc2ccccc12 [9-Nitroanthracene]
CYP2C19 Efficacy (in parenthesis) (human CYP2C19 [1]; human): 19.86 ± 2.28 (-116 ± 4) %
IC50 (human CYP1A2 [2]; [10]): 0.27 µM
CYP2C9 Efficacy (in parenthesis) (human CYP2C9 [3]; human): 13.51 ± 1.21 (-86 ± 11) %
CYP2D6 Efficacy (in parenthesis) (human CYP2D6 [4]): 34.03 ± 2.33 (-39 ± 13) %
IC50 (human CYP2D6 [5]; [11]): 34000 nM
IC50 [6]: 22.6 µM
IC50 (human CYP2C9 [7]; [12]): 13.5 µM
CYP1A2 Efficacy (in parenthesis) (human CYP1A2 [8]; human): 0.27 ± 0.04 (-96 ± 5) %
IC50 (human CYP2C19 [9]; [13]): 19.9 µM

CCc1cccc(N(C)C(N)=Nc2cccc3ccccc23)c1 [Aptiganel hydrochloride]
IC50 (human CYP2D6 [5]; CYP2D6 IC50): 140 nM
Luciferase IC50 [6]: Inactive
CYP3A4 IC50 (CYP3A4): Inactive
CYP1A2 IC50 (human CYP1A2 [8]): Inactive

C1CCC(NC2CCCCC2)CC1 [Dicyclohexylamine]
CYP2C19 IC50 (human CYP2C19 [1]): Inactive
CYP2C9 IC50 (human CYP2C9 [3]): Inactive
IC50 (human CYP2D6 [5]): 280 nM
Luciferase IC50 [6]: Inactive
CYP3A4 IC50 (CYP3A4): Inactive
CYP1A2 IC50 (human CYP1A2 [8]): Inactive

CN1[C@@H]2CC[C@H]1C[C@@H](NC(=O)n1c(=O)[nH]c3ccccc31)C2 [Itasetron]
CYP2C19 IC50 (half-maximal inhibitory concentration) (human CYP2C19 [1]): Inactive
CYP2C9 IC50 (half-maximal inhibitory concentration) (human CYP2C9 [3]): Inactive
IC50 (human CYP2D6 [5]): 870 ± 100 nM
Luciferase IC50 (half-maximal inhibitory concentration) [6]: Inactive
CYP3A4 IC50 (half-maximal inhibitory concentration) (CYP3A4): Inactive
CYP1A2 IC50 (half-maximal inhibitory concentration) (human CYP1A2 [8]): Inactive

CCOC(=O)CC(SP(=S)(OC)OC)C(=O)OCC (stereo not drawn) [Malathion]
IC50 (human CYP1A2 [2]; CYP1A2 IC50): 2.12 µM
IC50 (human CYP2D6 [5]; CYP2D6 IC50): 58100 nM
IC50 [6]: 37 µM
IC50 (human CYP2C9 [7]; CYP2C9 IC50): 1.78 µM
IC50 (human CYP2C19 [9]; CYP2C19 IC50): 0.54 µM

COC(=O)C1=C(C)NC(C)=C(C(=O)OCCN2CCN(C(c3ccccc3)c3ccccc3)CC2)C1c1cccc([N+](=O)[O-])c1 (stereo not drawn) [Manidipine]
IC50 (human CYP2D6 [5]): 6170 ± 5320 nM
Luciferase IC50 (half-maximal inhibitory concentration) [6]: Inactive
CYP3A4 IC50 (half-maximal inhibitory concentration) (CYP3A4): Inactive
IC50 (human CYP2C9 [7]): 0.52 ± 0.3 µM
CYP1A2 IC50 (half-maximal inhibitory concentration) (human CYP1A2 [8]): Inactive
IC50 (human CYP2C19 [9]): 2.39 ± 2.01 µM

Cc1cc(O)c2ccccc2c1O [Menadiol]
IC50 (human CYP1A2 [2]; CYP1A2 IC50): 0.8 µM
IC50 (human CYP2D6 [5]; CYP2D6 IC50): 19300 nM
Luciferase IC50 [6]: Inactive
IC50 (human CYP2C9 [7]; CYP2C9 IC50): 12.2 µM
IC50 (human CYP2C19 [9]; CYP2C19 IC50): 13.4 µM

c1ccc2c(c1)Sc1ccccc1N2CC1CN2CCC1CC2 (stereo not drawn) [Mequitazine]
CYP2C19 IC50 (half-maximal inhibitory concentration) (human CYP2C19 [1]): Inactive
CYP2C9 IC50 (half-maximal inhibitory concentration) (human CYP2C9 [3]): Inactive
IC50 (human CYP2D6 [5]; [11]): 290 nM
Luciferase IC50 (half-maximal inhibitory concentration) [6]: Inactive
CYP3A4 IC50 (half-maximal inhibitory concentration) (CYP3A4): Inactive
CYP1A2 IC50 (half-maximal inhibitory concentration) (human CYP1A2 [8]): Inactive

CN1CCCCC1CCN1c2ccccc2Sc2ccc([S+](C)[O-])cc21 (stereo not drawn) [Mesoridazine]
CYP2C19 IC50 (half-maximal inhibitory concentration) (human CYP2C19 [1]): Inactive
CYP2C9 IC50 (half-maximal inhibitory concentration) (human CYP2C9 [3]): Inactive
IC50 (human CYP2D6 [5]; [11]): 90 nM
Luciferase IC50 (half-maximal inhibitory concentration) [6]: Inactive
CYP3A4 IC50 (half-maximal inhibitory concentration) (CYP3A4): Inactive
CYP1A2 IC50 (half-maximal inhibitory concentration) (human CYP1A2 [8]): Inactive

COc1nn(CSP(=S)(OC)OC)c(=O)s1 [Methidathion]
IC50 (human CYP1A2 [2]; CYP1A2 IC50): 6.58 µM
IC50 (human CYP2D6 [5]): 35700 nM
IC50 [6]: 44 µM
IC50 (human CYP2C9 [7]): 6.58 µM
IC50 (human CYP2C19 [9]; CYP2C19 IC50): 0.8 µM

CCN(CC)CCOC(=O)C(Cc1cccc2ccccc12)CC1CCCO1 (stereo not drawn) [Nafronyl oxalate]
IC50 (human CYP1A2 [2]; CYP1A2 IC50): 18.2 µM
CYP2C9 IC50 (human CYP2C9 [3]): Inactive
IC50 (human CYP2D6 [5]; CYP2D6 IC50): 2980 nM
Luciferase IC50 [6]: Inactive
IC50 (human CYP2C19 [9]; CYP2C19 IC50): 7.76 µM

CO[C@]12C[C@@H](COC(=O)c3cncc(Br)c3)CN(C)[C@@H]1Cc1cn(C)c3cccc2c13 [Nicergoline]
IC50 (human CYP1A2 [2]; CYP1A2 IC50): 22 µM
CYP2C9 IC50 (human CYP2C9 [3]): Inactive
IC50 (human CYP2D6 [5]; CYP2D6 IC50): 70 nM
Luciferase IC50 [6]: Inactive
IC50 (human CYP2C19 [9]; CYP2C19 IC50): 11.8 µM

O=C(NCCc1c[nH]c2ccccc12)c1cccnc1 [Nicotredole]
IC50 (human CYP1A2 [2]; [10]): 14.6 µM
IC50 (human CYP2D6 [5]; [11]): 31000 nM
IC50 [6]: 35.1 µM
IC50 (human CYP2C9 [7]; [12]): 15.1 µM
IC50 (human CYP2C19 [9]; [13]): 8.39 µM

Nc1c(Cl)c(Cl)c(Cl)c(Cl)c1Cl [Pentachloroaniline]
IC50 (human CYP1A2 [2]; CYP1A2 IC50): 0.85 µM
IC50 (human CYP2D6 [5]): 75300 nM
Luciferase IC50 [6]: Inactive
IC50 (human CYP2C9 [7]): 51.5 µM
IC50 (human CYP2C19 [9]; CYP2C19 IC50): 44 µM

CCCN1C[C@H](CSC)C[C@@H]2c3cccc4[nH]cc(c34)C[C@H]21 [Pergolide methanesulfonate]
IC50 (human CYP1A2 [2]; CYP1A2 IC50): 6.54 µM
IC50 (human CYP2D6 [5]; CYP2D6 IC50): 150 nM
Luciferase IC50 [6]: Inactive
IC50 (human CYP2C9 [7]; CYP2C9 IC50): 6.26 µM
IC50 (human CYP2C19 [9]; CYP2C19 IC50): 8.43 µM

c1ccc2c(c1)Nc1ccccc1S2 [Phenothiazine]
IC50 (human CYP1A2 [2]; [10]): 0.97 µM
IC50 (human CYP2D6 [5]; [11]): 30800 nM
IC50 [6]: 58.1 µM
IC50 (human CYP2C9 [7]; [12]): 40.4 µM
IC50 (human CYP2C19 [9]; [13]): 4.3 µM

CCOP(=S)(OCC)O/N=C(\C#N)c1ccccc1 [Phoxim]
IC50 (human CYP1A2 [2]; CYP1A2 IC50): 0.99 µM
IC50 (human CYP2D6 [5]): 22500 nM
Luciferase IC50 [6]: Inactive
IC50 (human CYP2C9 [7]): 2.04 µM
IC50 (human CYP2C19 [9]; CYP2C19 IC50): 0.28 µM

c1cc2ccc3cccc4ccc(c1)c2c34 [Pyrene]
IC50 (human CYP1A2 [2]; CYP1A2 IC50): 0.64 µM
IC50 (human CYP2D6 [5]; CYP2D6 IC50): 47100 nM
Luciferase IC50 [6]: Inactive
IC50 (human CYP2C9 [7]; CYP2C9 IC50): 60.5 µM
IC50 (human CYP2C19 [9]; CYP2C19 IC50): 24.3 µM

CCOC(=O)COc1ccc2c(c1)C[C@@H](NC[C@H](O)c1cccc(Cl)c1)CC2 [SR58611]
IC50 (human CYP2D6 [5]): 660 ± 180 nM
Luciferase IC50 (half-maximal inhibitory concentration) [6]: Inactive
CYP3A4 IC50 (half-maximal inhibitory concentration) (CYP3A4): Inactive
IC50 (human CYP2C9 [7]): 31 ± 4.26 µM
CYP1A2 IC50 (half-maximal inhibitory concentration) (human CYP1A2 [8]): Inactive
IC50 (human CYP2C19 [9]): 35.2 ± 8.79 µM

O=C(CCCN1CCC2(CC1)C(=O)NCN2c1ccccc1)c1ccc(F)cc1 [Spiperone]
CYP2C19 IC50 (human CYP2C19 [1]): Inactive
CYP2C9 IC50 (human CYP2C9 [3]): Inactive
IC50 (human CYP2D6 [5]; CYP2D6 IC50, mean ± standard deviation from three experiments): 790 ± 180 nM
Luciferase IC50 [6]: Inactive
CYP3A4 IC50 (CYP3A4): Inactive
CYP1A2 IC50 (human CYP1A2 [8]): Inactive

CCCC[N+](CCCC)(CCCC)CCCC [Tetrabutylammonium bromide]
CYP2C19 IC50 (human CYP2C19 [1]): Inactive
CYP2C9 IC50 (human CYP2C9 [3]): Inactive
IC50 (human CYP2D6 [5]; CYP2D6 IC50): 10 nM
Luciferase IC50 [6]: Inactive
CYP3A4 IC50 (CYP3A4): Inactive
CYP1A2 IC50 (human CYP1A2 [8]): Inactive

CCOC(=O)c1c(N)sc2c1CCN(Cc1ccccc1)C2 [Tinoridine]
IC50 (human CYP1A2 [2]): 16.1 ± 1.09 µM
IC50 (human CYP2D6 [5]): 20 ± 10 nM
Luciferase IC50 [6]: Inactive
IC50 (human CYP2C9 [7]): 6.91 ± 5.97 µM
IC50 (human CYP2C19 [9]): 0.71 ± 0.38 µM

Cl[C@H]1[C@H](Cl)[C@@H](Cl)[C@H](Cl)[C@@H](Cl)[C@H]1Cl [delta-Hexachlorocyclohexane]
AC50 (human CYP1A2 [2]; CYP1A2 AC50 (half-maximal activity concentration)): 35.7 µM
IC50 (human CYP1A2 [2]; [10]): 35.7 µM
AC50 (human CYP2D6 [5]; CYP2D6 AC50 (half-maximal activity concentration)): 48.8 µM
IC50 (human CYP2D6 [5]; [11]): 48800 nM
Luciferase IC50 (half-maximal inhibitory concentration) [6]: Inactive
AC50 (human CYP2C9 [7]; CYP2C9 AC50 (half-maximal activity concentration)): 25.6 µM
IC50 (human CYP2C9 [7]; [12]): 25.6 µM
AC50 (human CYP2C19 [9]; CYP2C19 AC50 (half-maximal activity concentration)): 2270 nM
IC50 (human CYP2C19 [9]; [13]): 2.27 µM

CN(C/C=C/C#CC(C)(C)C)Cc1cccc2ccccc12 [terbinafine, reference compound]
IC50 (human CYP1A2 [2]): 16.8 µM
IC50 (human CYP2D6 [5]): 400 nM
Luciferase IC50 [6]: Inactive
IC50 (human CYP2C9 [7]): 15.5 µM
IC50 (human CYP2C19 [9]): 31.9 µM
